The values below come from patent US20260297083A1, “SUBSTITUTED ACETYLENE COMPOUND DERIVATIVES AND THEIR PHARMACEUTICAL USE” (AVELOS THERAPEUTICS INC., priority 2023, published 2026).

This experiment relates to DLD-1 BRCA2(−/−) Cell. The experiment can be described thus: Cell viability assay (Resazurin) in DLD1-BRCA2 cells. Type of experiment: cell-based. The following applies: Homo sapiens, DLD-1, 336 h, 14 days, 1,500 cells/well, final DMSO 1%. The procedure:
DLD1-BRCA2 KG (Horizon Discovery, Cat #HD 105-007) cells and DLD1-parental cells were maintained in culture media (RPMI-1640 including 2 mM L-glutamin and 25 mM sodium bicarbonate, supplemented with 10% FBS), at 37° C. in a humidified atmosphere with 5% CO2. Cells were seeded at the final concentration of 1,500 cells/well (DLD1-BRCA2 KG) and 600 cells/well (DLD1-parental) in a 96-well plate. Four hours later, test compounds were added (the final concentration of DMSO was 1%) to the cells and media were replaced every 3-4 days for 14 days. To measure viability, cells were incubated in culture media supplemented with 0.1 mg/ml of Resazurin (Merck, Cat #R7017) for 4 hours. The fluorescence was measured at Ex/Em=560 nm/590 nm using EnSight multimode plate reader (Perkin Elmer). Data analysis and IC50 calculation was done using GraphPad Prism (Version 10.0.2).
(In general: The colour change of resazurin is a common sign of viable cells or microbes.)
Take `Cc1cc(C(F)(F)F)cc(N2C(=O)CC[C@H]2C(=O)N(CC#Cc2ccc(C(N)=O)nc2)c2ccc(F)c(C)c2)n1` [Example 12, (S)-5-(3-(N-(4-fluoro-3-methyl-phenyl)-1-(6-methyl-4-(trifluoro-methyl)pyridin-2-yl)-5-oxo-pyrrolidine-2-carboxamido)prop-1-yn-1-yl)picolinamide]: the IC50 (in general, the midpoint of a concentration-inhibition curve) was below 1000 nM.

Regarding `CCN1CCN(CC#CCN(C(=O)[C@@H]2CCC(=O)N2c2cc(C(F)(F)F)cc(C)n2)c2ccc(F)c(C)c2F)CC1` [Example 13, (S)—N-(2,4-difluoro-3-methylphenyl)-N-(4-(4-ethylpiperazin-1-yl)but-2-yn-1-yl)-1-(6-methyl-4-(trifluoromethyl)pyridin-2-yl)-5-oxopyrrolidine-2-carboxamide], the IC50 is 1100 to 5000 nM. As for `Cc1cc(C(F)(F)F)cc(N2C(=O)CC[C@H]2C(=O)N(CC#CCN2CCOCC2)c2ccc(F)c(C)c2F)n1` [Example 14, (S)—N-(2,4-difluoro-3-methylphenyl)-1-(6-methyl-4-(trifluoromethyl)pyridin-2-yl)-N-(4-morpholinobut-2-yn-1-yl)-5-oxopyrrolidine-2-carboxamide], the figure is 1100 to 5000 nM; as for `Cc1cc(C(F)(F)F)cc(N2C(=O)CC[C@H]2C(=O)N(CC#CCN2CCN(c3cnccn3)CC2)c2ccc(F)c(C)c2F)n1` [Example 15, (S)—N-(2,4-difluoro-3-methylphenyl)-1-(6-methyl-4-(trifluoromethyl)pyridin-2-yl)-5-oxo-N-(4-(4-(pyrazin-2-yl)piperazin-1-yl)but-2-yn-1-yl)pyrrolidine-2-carboxamide], 1100 to 5000 nM.

As to `Cc1cc(C(F)(F)F)cc(N2C(=O)CC[C@H]2C(=O)N(CC#CCN2CCN(c3ncccn3)CC2)c2ccc(F)c(C)c2F)n1` [Example 16, (S)—N-(2,4-difluoro-3-methylphenyl)-1-(6-methyl-4-(trifluoromethyl)pyridin-2-yl)-5-oxo-N-(4-(4-(pyrimidin-2-yl)piperazin-1-yl)but-2-yn-1-yl)pyrrolidine-2-carboxamide], the IC50 lay in the range of 1100 to 5000 nM. As for `Cc1cc(C(F)(F)F)cc(N2[C@H](C(=O)N(CC#Cc3cnc(N)cn3)c3ccc(F)c(C)c3F)CCS2(=O)=O)n1` [Example 17, (S)—N-(3-(5-aminopyrazin-2-yl)prop-2-yn-1-yl)-N-(2,4-difluoro-3-methylphenyl)-2-(6-methyl-4-(trifluoromethyl)pyridin-2-yl)isothiazolidine-3-carboxamide 1,1-dioxide], the figure is below 1000 nM; as for `Cc1cc(C(F)(F)F)cc(N2[C@H](C(=O)N(CC#Cc3ccc(N)nn3)c3ccc(F)c(C)c3)CCS2(=O)=O)n1` [Example 18, (S)-N-(3-(6-aminopyridazin-3-yl)prop-2-yn-1-yl)-N-(4-fluoro-3-methylphenyl)-2-(6-methyl-4-(trifluoromethyl)pyridin-2-yl)isothiazolidine-3-carboxamide 1,1-dioxide], below 1000 nM. As for `Cc1cc(C(F)(F)F)cc(N2[C@H](C(=O)N(CC#Cc3ccc(NC(C)C)nn3)c3ccc(F)c(C)c3)CCS2(=O)=O)n1` [Example 20], the figure is below 1000 nM; as for `Cc1cc(C(F)(F)F)cc(N2[C@H](C(=O)N(CC#Cc3ccc(NC(C)C)nn3)c3ccc(F)c(C)c3F)CCS2(=O)=O)n1` [Example 21, (S)-N-(2,4-difluoro-3-methylphenyl)-N-(3-(6-(isopropylamino)pyridazin-3-yl)prop-2-yn-1-yl)-2-(6-methyl-4-(trifluoromethyl)pyridin-2-carboxamide 1,1-dioxideyl)isothiazolidine-3-carboxamide 1,1-dioxide], below 1000 nM. As for `CC(=O)Nc1ccc(C#CCN(C(=O)[C@@H]2CCS(=O)(=O)N2c2cc(C(F)(F)F)cc(C)n2)c2ccc(F)c(C)c2)nn1` [Example 22, (S)-N-(3-(6-acetamidopyridazin-3-yl)prop-2-yn-1-yl)-N-(4-fluoro-3-methylphenyl)-2-(6-methyl-4-(trifluoromethyl)pyridin-2-yl)isothiazolidine-3-carboxamide 1,1-dioxide], the figure is 1100 to 5000 nM; as for `Cc1cc(C(F)(F)F)cc(N2[C@H](C(=O)N(CC#Cc3ccc(N4CCOCC4)nn3)c3ccc(F)c(C)c3)CCS2(=O)=O)n1` [Example 23, (S)-N-(4-fluoro-3-methylphenyl)-2-(6-methyl-4-(trifluoromethyl)pyridin-2-yl)-N-(3-(6-morpholinopyridazin-3-yl)prop-2-yn-1-yl)isothiazolidine-3-carboxamide 1,1-dioxide], 1100 to 5000 nM. The compound `CCN1CCN(c2ccc(C#CCN(C(=O)[C@@H]3CCS(=O)(=O)N3c3cc(C(F)(F)F)cc(C)n3)c3ccc(F)c(C)c3)nn2)CC1` [Example 24, (S)-N-(3-(6-(4-ethylpiperazin-1-yl)pyridazin-3-yl)prop-2-yn-1-yl)-N-(4-fluoro-3-methylphenyl)-2-(6-methyl-4-(trifluoromethyl)pyridin-2-yl)isothiazolidine-3-carboxamide 1,1-dioxide] returned an IC50 below 1000 nM.

On to `CCN(CC)c1ccc(C#CCN(C(=O)[C@@H]2CCS(=O)(=O)N2c2cc(C(F)(F)F)cc(C)n2)c2ccc(F)c(C)c2)nn1` [Example 25, (S)-N-(3-(6-(diethylamino)pyridazin-3-yl)prop-2-yn-1-yl)-N-(4-fluoro-3-methylphenyl)-2-(6-methyl-4-(trifluoromethyl)pyridin-2-yl)isothiazolidine-3-carboxamide 1,1-dioxide], for which the IC50 was in the range of 1100 to 5000 nM. As for `Cc1cc(C(F)(F)F)cc(N2[C@H](C(=O)N(CC#Cc3ccc(=O)[nH]n3)c3ccc(F)c(C)c3)CCS2(=O)=O)n1` [Example 26, (S)-N-(4-fluoro-3-methylphenyl)-2-(6-methyl-4-(trifluoromethyl)pyridin-2-yl)-N-(3-(6-oxo-1,6-dihydropyridazin-3-yl)prop-2-yn-1-yl)isothiazolidine-3-carboxamide 1,1-dioxide], the figure is below 1000 nM; as for `COc1ccc(C#CCN(C(=O)[C@@H]2CCS(=O)(=O)N2c2cc(C(F)(F)F)cc(C)n2)c2ccc(F)c(C)c2)nn1` [Example 27, (S)-N-(4-fluoro-3-methylphenyl)-N-(3-(6-methoxypyridazin-3-yl)prop-2-yn-1-yl)-2-(6-methyl-4-(trifluoromethyl)pyridin-2-yl)isothiazolidine-3-carboxamide 1,1-dioxide], below 1000 nM; as for `Cc1cc(C(F)(F)F)cc(N2[C@H](C(=O)N(CC#Cc3ccc(OC(F)F)nn3)c3ccc(F)c(C)c3)CCS2(=O)=O)n1` [Example 28, (S)-N-(3-(6-(difluoromethoxy)pyridazin-3-yl)prop-2-yn-1-yl)-N-(4-fluoro-3-methylphenyl)-2-(6-methyl-4-(trifluoromethyl)pyridin-2-yl)isothiazolidine-3-carboxamide 1,1-dioxide], below 1000 nM. As for `Cc1cc(C(F)(F)F)cc(N2[C@H](C(=O)N(CC#Cc3ccc(C(N)=O)nn3)c3ccc(F)c(C)c3)CCS2(=O)=O)n1` [Example 29], the figure is below 1000 nM; as for `Cc1cc(C(F)(F)F)cc(N2[C@H](C(=O)N(CC#Cc3cnc(N)cn3)c3ccc(F)c(C)c3)CCS2(=O)=O)n1` [Example 30, (S)-N-(3-(5-aminopyrazin-2-yl)prop-2-yn-1-yl)-N-(4-fluoro-3-methylphenyl)-2-(6-methyl-4-(trifluoromethyl)pyridin-2-yl)isothiazolidine-3-carboxamide 1,1-dioxide], 1100 to 5000 nM. The compound `Cc1cc(C(F)(F)F)cc(N2[C@@H](C(=O)N(CC#Cc3cnc(N)cn3)c3ccc(F)c(C)c3F)CCS2(=O)=O)n1` [Example 31, (R)-N-(3-(5-aminopyrazin-2-yl)prop-2-yn-1-yl)-N-(2,4-diffuoro-3-methylphenyl)-2-(6-methyl-4-(trifluoromethyl)pyridin-2-yl)isothiazolidine-3-carboxamide 1,1-dioxide] showed an IC50 above 5100 nM. Compound `Cc1ccc(F)c(N(CC#Cc2cnc(N)cn2)C(=O)[C@@H]2CCS(=O)(=O)N2c2cc(C(F)(F)F)cc(C)n2)c1` [Example 33, (S)-N-(3-(5-aminopyrazin-2-yl)prop-2-yn-1-yl)-N-(2-fluoro-5-methylphenyl)-2-(6-methyl-4-(trifluoromethyl)pyridin-2-yl)isothiazolidine-3-carboxamide 1,1-dioxide] showed an IC50 below 1000 nM. Turning to `CC(=O)Nc1cnc(C#CCN(C(=O)[C@@H]2CCS(=O)(=O)N2c2cc(C(F)(F)F)cc(C)n2)c2ccc(F)c(C)c2)cn1` [Example 34, (S)-N-(3-(5-acetamidopyrazin-2-yl)prop-2-yn-1-yl)-N-(4-fluoro-3-methylphenyl)-2-(6-methyl-4-(trifluoromethyl)pyridin-2-yl)isothiazolidine-3-carboxamide 1,1-dioxide], the IC50 fell in the range of 1100 to 5000 nM. As for `Cc1cc(C(F)(F)F)cc(N2[C@H](C(=O)N(CC#Cc3cnc(NC(N)=O)cn3)c3ccc(F)c(C)c3)CCS2(=O)=O)n1` [Example 35, (S)-N-(4-fluoro-3-methylphenyl)-2-(6-methyl-4-(trifluoromethyl)pyridin-2-yl)-N-(3-(5-ureidopyrazin-2-yl)prop-2-yn-1-yl)isothiazolidine-3-carboxamide 1,1-dioxide], the figure is 1100 to 5000 nM; as for `Cc1cc(C(F)(F)F)cc(N2[C@H](C(=O)N(CC#Cc3cnc(NC(C)C)cn3)c3ccc(F)c(C)c3)CCS2(=O)=O)n1` [Example 36, (S)-N-(4-fluoro-3-methylphenyl)-N-(3-(5-(isopropylamino)pyrazin-2-yl)prop-2-yn-1-yl)-2-(6-methyl-4-(trifluoromethyl)pyridin-2-yl)isothiazolidine-3-carboxamide 1,1-dioxide], below 1000 nM.
